US20140377350A1, “BILAYER TABLET FORMULATIONS OF FLURBIPROFEN AND GLUCOSAMIN” (Sanovel Ilac Sanayi Ve Ticaret Anonim Sirketi, priority 2012, published 2014)

Assays:
[1] = in-vitro release (dissolution) of the actives from the bilayer tablet, USP paddle method; assay type: physicochemical; details: 900 ml phosphate buffer pH 7.2, 37° C., 50 RPM
Description: Therefore, the release profiles of the actives are as follows; the maximum 40% of total amount of flurbiprofen is released in 2 hours and 50-80% in 6 hours and at least 75% in 8 hours in 900 ml of phosphate buffer at pH 7.2 at 37° C. using USP paddle method rotating at 50 RPM. Glucosamine is released immediately and minimum 75% of the total amount is dissolved in 60 min.

[2] = cited from earlier work

CC(C(=O)O)c1ccc(-c2ccccc2)c(F)c1 (stereo not drawn) [flurbiprofen, Flurbiprofen]
total amount of flurbiprofen released ([1]; in 2 hours): ≤ 40% | total amount of flurbiprofen released ([1]; in 6 hours): 50-80% | solubility in water [2]: practically insoluble
